Here are results for one molecule from publication PMC7782499, “Progerinin, an optimized progerin-lamin A binding inhibitor, ameliorates premature senescence phenotypes of Hutchinson-Gilford progeria syndrome” (Communications Biology, 2021).

In the assay the target is T1, progerin (Homo sapiens, UniProt P02545).
T1 sequence (P02545 1-614 isoform P02545-6): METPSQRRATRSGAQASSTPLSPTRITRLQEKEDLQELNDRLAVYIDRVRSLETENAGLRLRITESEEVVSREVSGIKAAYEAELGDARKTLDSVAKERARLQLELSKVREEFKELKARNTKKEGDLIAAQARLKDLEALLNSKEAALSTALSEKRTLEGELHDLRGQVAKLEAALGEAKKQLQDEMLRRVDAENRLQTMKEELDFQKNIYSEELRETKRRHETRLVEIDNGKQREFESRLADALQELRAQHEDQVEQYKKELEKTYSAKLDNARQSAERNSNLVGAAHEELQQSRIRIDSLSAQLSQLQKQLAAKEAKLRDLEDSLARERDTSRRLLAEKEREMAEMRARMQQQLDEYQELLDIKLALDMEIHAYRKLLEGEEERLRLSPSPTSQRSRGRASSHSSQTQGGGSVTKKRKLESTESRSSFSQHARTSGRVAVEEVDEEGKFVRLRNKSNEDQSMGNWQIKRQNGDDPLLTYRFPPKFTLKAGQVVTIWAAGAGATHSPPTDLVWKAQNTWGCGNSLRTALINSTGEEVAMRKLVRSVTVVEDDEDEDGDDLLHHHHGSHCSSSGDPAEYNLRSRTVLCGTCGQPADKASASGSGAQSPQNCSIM
In words: Exogenous GFP-progerin expression in transfected HEK293 cells. The assay is classed as cell-based. Details: expressed in transfected cells; host or cells: HEK293 (ATCC); vector from T. Misteli (NCI). The following applies: for GFP intensity after treatment with SLC-D011, Ave: average; for GFP intensity after treatment with SLC-D011: single replicates. As for the experimental part: A. In vivo pharmacokinetic (PK) analysis of JH010 (performed in rats). […] B Effect of SLC-D011 on human ERG (hERG). […] C In vivo pharmacokinetic analysis of SLD-D011. […] HEK293 cells transiently transfected with GFP-PG vectors were treated with SLC-D011 for 24 hr (n = 3 independent experiment; two-tailed Student’s t test). […] “Con” means dimethyl sulfoxide (DMSO)-treated control.
GFP tag conjugated EV (GFP-EV), lamin A (GFP-LA), lamin A-C661A (GFP-LA-C661A), progerin (GFP-PG), and progerin-C611A (GFP-PG-C611A) vectors were used. GFP-PG and GFP-LA expression vectors were kindly provided by Misteli T. (National Cancer Institute [NCI], Frederick, MD, USA). GFP-LA-C661A and GFP-PG-C611A expression vectors were created by a single point mutation in CaaX motif. The CSIM sequence of lamin A, or progerin was mutated to ASIM. jetPEI (Polyplus Transfection, NY, USA) was used for transfection of expression vectors. Vectors were mixed with 1.5 μl of jetPEI in 150 mM NaCl solution. The mixture was added to HEK293 cells. After 4 h of incubation, medium was replaced with a new medium supplemented with 10% FBS.
Protein was extracted from cells using a radioimmunoprecipitation assay (RIPA) buffer (50 mM Tris-Cl, pH 7.5, 150 mM NaCl, 1% NP-40, 0.1% SDS, and 10% sodium deoxycholate). Samples were separated by sodium dodecyl sulfate-polyacrylamide gel electrophoresis (SDS-PAGE) and transferred to polyvinylidene difluoride (PVDF) membranes. Blotted membranes were blocked with 3% skimmed milk in TBS-T buffer (20 mM Tris pH 7.6, 150 mM NaCl, and 0.05% Tween 20) for 1 h followed by incubation with specific primary antibodies. Horseradish peroxidase (HRP)-conjugated goat anti-mouse, goat anti-rabbit, and mouse anti-goat IgG antibodies (Pierce, Thermo Fisher Scientific, Inc., Rockford, IL, USA) were used as secondary antibodies. Peroxidase activity was detected by chemiluminescence using an ECL kit (Intron, Seoul, Korea) following the manufacturer’s instructions. Bands were quantified using Image J software (National Institute of Health, NIH).

Several values for one entry are separate records, joined by “and”; a condition that tells them apart may be missing. Equal entries are not always repeated.

As for `CC1(C)Oc2cc3oc(=O)ccc3cc2C[C@@H]1OC/C=C/c1ccccc1` [SLC-D011], the “GFP intensity after treatment with SLC-D011, Ave” value is, setting by setting: (10nM) 23.7595 AU; (50nM) 15.0559 AU; (100nM) 3.935 AU; (500nM) 1.357 AU; (1μM) 1.02 AU; (2μM) 0.8179 AU. For the setting “5μM”, the “GFP intensity after treatment with SLC-D011, Ave” value is 0.08935 AU. Besides, the “GFP intensity after treatment with SLC-D011” value reads like this: (10nM) 22.794 AU and 22.0662 AU and 26.4183 AU; (50nM) 15.1696 AU and 15.171 AU and 14.827 AU; (100nM) 3.384 AU and 4.172 AU and 4.251 AU; (500nM) 1.4575 AU and 1.25 AU and 1.363 AU; (1μM) 0.898 AU and 1.076 AU and 1.085 AU; (2μM) 0.8856 AU and 0.7639 AU and 0.8042 AU. Besides, where the note is “5μM”, the “GFP intensity after treatment with SLC-D011” value is 0.1141 AU and 0.03666 AU and 0.1173 AU. Also, under “HEK293, GFP-PG, 24 hr”, the “Concentration from which exogenous progerin expression is reduced” value was found to be 100 nM.
